Source: patent US20150174186A1, “PHARMACEUTICAL COMPOSITION FOR PREVENTING OR TREATING STAT3-MEDIATED DISEASE, COMPRISING SALVIA PLEBEIA R. BR. EXTRACT OR FRACTION THEREOF AS ACTIVE INGREDIENT” (Korea Research Institute of Bioscience and Biotechnology, priority 2012, published 2015)

How the values were obtained:
[1] = system: osteoclasts; assay: Differentiation and formation of osteoclasts from bone marrow macrophages (TRAP assay); format: cell-based, ICR mouse; details: BMM cells
Source text: Osteoclasts are known to directly affect bone resorption, and the differentiation and formation of osteoclasts play a very important role in osteoporosis. In order to examine the effect of the ethanol extract of Salvia plebeia R. Br. on the differentiation and formation of osteoclasts, the differentiation from bone marrow cells isolated from the femur of an ICR mouse into osteoclasts was observed.
Bone marrow cells were separated from the femur of a three- to six-week old ICR mouse, and the separated cells were treated with M-CSF (30 ng/ml) for 3 days, thereby inducing their differentiation into bone marrow macrophage (BMM). Then, the BMM was treated with M-CSF (30 ng/ml) and RANKL (100 ng/ml) for 4 days, thereby inducing them to be differentiated into osteoclasts. […] Then, the differentiation and formation of osteoclasts were confirmed by TRAP assay.

[2] = system: mouse model with osteoporosis induced by ovariectomy; assay: Mouse model with osteoporosis induced by ovariectomy (DEXA, micro CT); format: in vivo, C57BL/6 mouse; details: compared to PBS after ovariectomy, oral, five weeks
Source text: Test groups were divided into a sham group (only surgery without ovary removal) and a group treated with ovariectomy (OVX). In the OVX group, the ovaries of an eight-week old female C57BL/6 mouse were removed by surgery and the mouse was bred for 6 weeks to induce osteoporosis. […] The sample was used after dissolving in PBS. Furthermore, the sham group was orally administered with PBS for five weeks.
Upon termination of five weeks' oral administration, the Bone Mineral Density (BMD) and Bone Mineral Content (BMC) of the mouse were measured using an osteoporosis analyzing device Dual-Energy X-ray Absorptiometry (DEXA; bone mineral density analyzer), and the results are shown in FIG. 21a-21d.
Upon termination of five weeks' oral administration, the mice of each experimental group were sacrificed, and the bones adjacent to tibia were separated. The bones were then photographed to obtain their 3-dimensional structures and cross-sections via micro CT, and the microstructures and volume of the bones and trabecular thickness were measured.

With `NCCCC(O)(P(=O)(O)O)P(=O)(O)O` [alendronate] the differentiation of osteoclasts ([1]; 10 μM) was “differentiation of osteoclasts was observed”, the formation of osteoclasts ([1]; 30 and 60 μM) was “osteoclasts were not formed due to toxicity” and the “Bone Mineral Content (BMC)” value [2] was “significant increase”.
